The values below come from US9738612B2, “Methylacryloyl benzimidazolone derivative and anti-tumour use thereof” (SHANGHAI NATURE STANDARD R&D AND BIOTECH CO., LTD, priority 2014, dated 2017).

Common to all, as to format: cell-based
One assay concerns Hela cell. The assay can be described thus: Sulforhodamine B proliferation. The note with it: Homo sapiens, SRB method of Example 2, FIG. 3, read-out: Half inhibitory concentration to Hela cell proliferation. How it is done: (§1) At a certain density cells were seeded in 96-well plates, and adhered overnight. The medium was discarded after incubating cells with compounds to be tested for 72 h, then 100μL/well trichloroacetic acid (TCA) was added to fix cells at 4° C. for 2h. After that the fixing solution was discarded. Cells were gently washed 5 times with distilled water, dried at room temperature. Cells were stained with 4 mg/mL SRB staining solution (100 μL/well) at room temperature for 15min. The staining solution was discarded, and cells were washed five times with 1% acetic acid (HAC) and dried at room temperature. To the plate tris base buffer (10 mM) was added at 150 μL/well and placed at room temperature for 15min. The OD values were measured at 540 nm wavelength in a microplate reader. Inhibitory rate (%)=(OD valuecontrol wells−OD valuedrugs treated wells)/OD valuecontrol wells×100%.
(§2) In the present invention the inhibition of a representative compound FD162 to the proliferation of more than 20 tumor cell lines were tested, and the experimental methods were the same as that described in Example 2.
Background: The SRB assay estimates cell density from bound dye.

Assay [1] has as its system more than 20 tumor cell lines. The assay can be described thus: Proliferation of more than 20 tumor cell lines (FIG. 2). The note with it: FIG. 2, in words. How it is done: as §1, §2
Assay [2] deals with Akt phosphorylation at S473 site. The assay can be described thus: ELISA (double antibody sandwich), Akt phosphorylation in IGF-1 stimulated A549 cells. The note with it: drug 1 h, then IGF-1 10 min, p-Akt (S473) ELISA. The method, then: Establishment of ELISA screening method using a double antibody sandwich method: A549 cells (a lung cancer cell line, purchased from Chinese Academy of Sciences, Shanghai Institutes for Biological Sciences Cell Resource Center) were inoculated at certain densities in 12-well plates, and incubated at 37° C. in a carbon dioxide incubator overnight to let cells attach the plate wells. Meanwhile the Akt antibody was inoculated at a specific concentration in a highly-adsorbed microplate, and placed in a refrigerator at 4° C. The 12-well plates were washed with sterile PBS three times, then into which serum-free F12 was added, and incubated for 24 hours in a incubator. Then MK2206, Triciribine and FD series drugs were added into 12-well plates and worked for one hour, followed by adding 100 ng of IGF-1 and being stimulated for 10 minutes. The 12-well plates were washed with pre-cooled PBS three times, and 100 μl of RIPA lysis buffer was added into each well to lyse cells on ice for 20 minutes. The lysates were collected and added to the appropriate microplate (purchased from Santa Cruz biotechnology), which were shaken on ice. A p-Akt (S473) antibody (purchased Cell Signaling Technology, Inc.) was added into microplates. After shaking for a period of time, an anti-rabbit antibody (purchased from Cell Signaling Technology, Inc.) was added. The reaction was terminated with 2M sulfuric acid after TMB developed. Absorbance at 450 nm was measured on a microplate reader, and the inhibitory rate=[…], among which ODsample refers to the absorbance of the sample well, ODIGF refers the absorbance of the well with IGF only, OD—IGF refers the absorbance of the well withoutIGF.
A general note: An ELISA detects its analyte on a solid surface through an enzyme-linked reagent.

Assay [3] concerns PI3K/Akt/mTOR signaling pathway. The assay can be described thus: Inhibition test to signaling pathway at the cellular level (FIG. 4). To be noted: different concentrations, FIG. 4, in words. How it is done: A549 cells were seeded at a density of 2×10^5 cells/well into 12-well plates, and adhered overnight. Then the medium was discarded and the plates were washed three times with normal saline. After that, fresh serum-free medium was added to starve cells for 24 hours, compounds to be tested were added to work for 1 h, then IGF-I was added to stimulated for 10 min, followed byadding a lysis buffer on ice to lyse for half an hour. The cell lysates were collected and centrifuged at 20000×g at 4° C. for 10min, then the supernatant was collected. Protein was quantified by MicroBCA protein quantification Assay kit, and the protein concentration was normalized. The supernatant was mixed with the 4×SDS sample buffer [200 mM Tris.Cl (pH 6.8), 400 mM DTT, 8% SDS, 0.4% bromophenol blue, 40% glycerol] and boiled for 15 min. After cooling at room temperature, aliquots were loaded on polyacrylamide gel, and electrophoresed in Tris-glycine electrophoretic buffer (25 mM Tris, 250 mM glycine, 0.1% SDS) at 80-120 V for about 2 h. Proteins were transferred from the gel to a nitrocellulose membrane by a semi-dry method. Transferring conditions: transfer buffer (39 mM glycine, 48 mM Tris base, 0.037% SDS, 20% methanol); transfer current 25 mA; transfer time 2 h. After transfer, Ponceau S staining was used to determine the transfer efficiency and the positions of protein bands on the nitrocellulose membranes. […]

Regarding `C=C(C)n1c(=O)n(C(C)=O)c2ncc(Br)cc21` [FD162], the IC50 in the assay on Hela cell came out at 3.67 µM. Besides, in assay [1], the “Inhibition of proliferation of tumor cell lines” value was “widespread inhibitory effects”. The “Inhibitory rate % (Akt phosphorylation)” value in assay [2] was found to be 91%. Further, the “Down-regulation of PI3K/Akt/mTOR signaling pathway” value in assay [3] is reported as “down-regulate PI3K/Akt/mTOR signaling pathway in a dose-dependent manner”.
